Results on 9 compounds are retold here after PubChem BioAssay (NCI).

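Values below derive from 48-hour exposures of cells grown in 96-well plates, with endpoints linearly interpolated between the two concentrations bracketing the appropriate inhibition level. TGI marks complete inhibition of growth.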 Where only a bound is given, the exact number is not on record here.

Test systems include TK-10 renal; SK-MEL-28 melanoma; RXF 393 renal; MCF7 breast; NCI-H522 lung; SF-268 CNS; HOP-92 NSCLC; DU-145 prostate; HCC-2998 colon; MOLT-4 leukemia.
What all share (test): NCI anticancer screen, dose series, 48 h

With `O=C(O)c1ccccc1CC(Cc1ccc2c(c1)CCC2)C(=O)O` (stereo not given), the TGI in the experiment with TK-10 renal, in the experiment with SK-MEL-28 melanoma, in the experiment on RXF 393 renal, in the experiment with MCF7 breast, in the experiment on NCI-H522 lung and in the experiment with SF-268 CNS was over 100 µM each time. Besides, the TGI in the experiment on HOP-92 NSCLC, in the experiment with DU-145 prostate, with HCC-2998 colon and with MOLT-4 leukemia was over 100 µM in each case.

With `COC(C)(C)C1(O)CC[C@@H](C)CC1=O` (stereo not given in full), the TGI in the experiment with TK-10 renal, in the experiment on SK-MEL-28 melanoma, in the experiment on RXF 393 renal, in the experiment with MCF7 breast, in the experiment with NCI-H522 lung and in the experiment with SF-268 CNS was over 100 µM throughout. In addition, the TGI with HOP-92 NSCLC, in the experiment on DU-145 prostate, in the experiment on HCC-2998 colon and in the experiment with MOLT-4 leukemia was over 100 µM in each case.

As for `O=C(/C=C/c1ccccc1)Oc1ccc(C(=O)/C=C/c2ccccc2)cc1`, the TGI is 20.8 µM with TK-10 renal; 21.3 µM in the experiment with SK-MEL-28 melanoma; over 60.6 µM in the experiment on RXF 393 renal; over 31.6 µM with MCF7 breast; 23.6 µM with NCI-H522 lung; 18.3 µM in the experiment with SF-268 CNS. The TGI in the experiment on HOP-92 NSCLC came to 39 µM; in the experiment on DU-145 prostate it was 14.9 µM; in the experiment on HCC-2998 colon, 15.3 µM; with MOLT-4 leukemia it was 16.8 µM.

In the case of `CC(=NNC(=S)Nc1ccccc1)c1cccc(C(C)=NNC(=S)Nc2ccccc2)n1`, the TGI is over 100 µM in the experiment with TK-10 renal; over 100 µM with SK-MEL-28 melanoma; 36.6 µM in the experiment with RXF 393 renal; over 30.7 µM with MCF7 breast; over 100 µM in the experiment with NCI-H522 lung; over 100 µM in the experiment on SF-268 CNS. For the same compound, the TGI in the experiment with HOP-92 NSCLC is over 50.2 µM; with DU-145 prostate, over 100 µM; in the experiment on HCC-2998 colon it was over 100 µM; in the experiment on MOLT-4 leukemia, over 30.1 µM.

On to `NS(=O)(=O)c1ccc(NC(=S)/N=C/C2=C(O)c3ccccc3C2=O)cc1`, for which the TGI in the experiment on TK-10 renal, in the experiment on SK-MEL-28 melanoma, with RXF 393 renal, with MCF7 breast, with NCI-H522 lung and in the experiment on SF-268 CNS was over 100 µM in each case. Also, the TGI in the experiment on HOP-92 NSCLC, in the experiment with DU-145 prostate, in the experiment with HCC-2998 colon and in the experiment with MOLT-4 leukemia was over 100 µM throughout.

Take `CC1=CCC([C@@](C)(O)CCCC(C)(C)N=C=S)CC1` (stereo not given in full): the TGI with TK-10 renal was 37.8 µM; in the experiment with SK-MEL-28 melanoma, 30.2 µM; with RXF 393 renal, 29.6 µM; in the experiment with MCF7 breast, 34.6 µM; in the experiment with NCI-H522 lung it was 33.8 µM; in the experiment with SF-268 CNS, 31.6 µM. Also, the TGI worked out at 33.1 µM in the experiment with HOP-92 NSCLC, 30.7 µM with DU-145 prostate, 32.4 µM in the experiment with HCC-2998 colon and 50.5 µM with MOLT-4 leukemia.

In the case of `COc1ccc(N2C(=O)CC(=O)N(NC(=O)C(C)Oc3ccccc3C)C2=S)cc1` (stereo not given), the TGI with TK-10 renal, with SK-MEL-28 melanoma, in the experiment on RXF 393 renal, in the experiment on MCF7 breast, in the experiment with NCI-H522 lung and in the experiment with SF-268 CNS was over 100 µM each time. For the same compound, the TGI in the experiment with HOP-92 NSCLC, with DU-145 prostate, in the experiment on HCC-2998 colon and in the experiment on MOLT-4 leukemia was over 100 µM each time.

`C=C1C(=O)CC2C1CC(=O)/C(C)=C/CCC(C)(O)C2O` (stereo not given): the TGI in the experiment with TK-10 renal came to 8.51 µM; in the experiment with SK-MEL-28 melanoma, 33.3 µM; in the experiment on RXF 393 renal, 11.6 µM; in the experiment on MCF7 breast, 8.38 µM; in the experiment with NCI-H522 lung it was 3.04 µM; in the experiment with SF-268 CNS, 35.6 µM. Further, the TGI in the experiment with HOP-92 NSCLC was determined as 15.8 µM; in the experiment on DU-145 prostate, 19.7 µM; in the experiment on HCC-2998 colon it was 17.1 µM; in the experiment with MOLT-4 leukemia, 6.2 µM.

For `Cc1c2cc[n+](C)c(C)c2cc2c1[nH]c1ccccc12`, the TGI is over 100 µM in the experiment on TK-10 renal; 26.4 µM in the experiment on SK-MEL-28 melanoma; over 100 µM with RXF 393 renal; 70.1 µM in the experiment with MCF7 breast; 18.2 µM with NCI-H522 lung; 5.6 µM in the experiment on SF-268 CNS. The TGI in the experiment on HOP-92 NSCLC is 50.8 µM; in the experiment on DU-145 prostate, over 78 µM; in the experiment on HCC-2998 colon, 32.2 µM; in the experiment on MOLT-4 leukemia it was 75.2 µM.
